In US20210070748A1, “INHIBITORS OF BRUTONS TYROSINE KINASE” (Pharmacyclics LLC, priority 2015, published 2021):

Legend:
[1] = molecular target: T1, BTK-WT (Homo sapiens, UniProt Q06187); assay: Btk in vitro inhibitory activity (one of Method A TR-FRET, Method B electrophoretic mobility shift, Method C radiometric filter binding); assay type: biochemical; conditions: D-compounds panel data; read-out: IC50 BTK-WT
T1 construct: purified from insect cells as a full-length construct containing an N-terminal 6X-His tag; His6 (N); made in house; host or cells: insect cells (baculovirus Sf21 in Method B)
T1 sequence (Q06187 whole entry): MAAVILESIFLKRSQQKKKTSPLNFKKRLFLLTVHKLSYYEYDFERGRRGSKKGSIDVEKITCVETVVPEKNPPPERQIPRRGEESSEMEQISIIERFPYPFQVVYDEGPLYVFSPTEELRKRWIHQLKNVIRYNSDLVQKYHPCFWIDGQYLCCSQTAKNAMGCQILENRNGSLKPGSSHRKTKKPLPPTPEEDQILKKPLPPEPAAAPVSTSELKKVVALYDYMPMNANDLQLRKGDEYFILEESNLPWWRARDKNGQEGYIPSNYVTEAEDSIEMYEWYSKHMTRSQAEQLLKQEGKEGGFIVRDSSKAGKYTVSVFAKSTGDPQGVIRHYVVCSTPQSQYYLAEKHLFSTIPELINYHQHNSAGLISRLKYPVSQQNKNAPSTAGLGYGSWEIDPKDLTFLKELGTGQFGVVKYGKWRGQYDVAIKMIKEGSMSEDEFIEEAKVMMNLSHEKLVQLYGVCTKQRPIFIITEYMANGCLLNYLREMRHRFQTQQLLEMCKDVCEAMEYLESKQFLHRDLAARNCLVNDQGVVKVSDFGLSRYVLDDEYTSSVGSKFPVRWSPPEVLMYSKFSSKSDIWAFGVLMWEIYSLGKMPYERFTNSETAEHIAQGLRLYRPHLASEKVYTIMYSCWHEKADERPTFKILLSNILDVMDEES

[2] = molecular target: T2, ITK (Homo sapiens, UniProt Q08881); assay: Inhibition of a panel of kinases, in vitro HotSpot kinase assay: ITK; assay type: biochemical; conditions: D-compounds panel data; 1 μM ATP
T2 sequence (Q08881 1-620): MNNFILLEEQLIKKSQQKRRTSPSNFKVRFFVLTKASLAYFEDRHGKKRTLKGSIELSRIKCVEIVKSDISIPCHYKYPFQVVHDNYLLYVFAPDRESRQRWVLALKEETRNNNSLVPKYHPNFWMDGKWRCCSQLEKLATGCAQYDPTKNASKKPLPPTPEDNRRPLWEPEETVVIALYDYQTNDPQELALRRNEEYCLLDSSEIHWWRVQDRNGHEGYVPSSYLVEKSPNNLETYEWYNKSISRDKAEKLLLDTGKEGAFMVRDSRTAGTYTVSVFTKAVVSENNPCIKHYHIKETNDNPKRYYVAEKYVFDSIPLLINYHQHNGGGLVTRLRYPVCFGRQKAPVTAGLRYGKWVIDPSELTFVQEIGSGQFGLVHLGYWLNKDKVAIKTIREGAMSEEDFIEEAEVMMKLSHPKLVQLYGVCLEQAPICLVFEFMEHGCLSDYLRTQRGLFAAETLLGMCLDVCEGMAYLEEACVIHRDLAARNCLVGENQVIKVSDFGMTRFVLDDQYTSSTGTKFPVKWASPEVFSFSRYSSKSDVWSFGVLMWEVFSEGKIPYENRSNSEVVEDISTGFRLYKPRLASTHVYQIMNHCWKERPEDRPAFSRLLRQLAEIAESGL
Protocol: The degree of inhibition of a panel of kinases is determined using the in vitro HotSpot kinase assay (purified enzymes, ^33P-ATP, an appropriate substrate and 1 μM ATP).

Compound `C[C@@H]1[C@H](NC(=O)c2ccc3c(cnn3C)c2)CCCN1c1cnc(C(N)=O)c(Nc2cnn(C)c2)n1` [Example D-254, N-[(2R,3R)-1-{5-carbamoyl-6-[(1-methyl-1H-pyrazol-4-yl)amino]pyrazin-2-yl}-2-methylpiperidin-3-yl]-1-methyl-1H-indazole-5-carboxamide] has an IC50 [1] of at most 10 nM and an IC50 [2] of 100 to 1000 nM.

`C[C@@H]1[C@H](NC(=O)c2ccc(C3CC3)cc2)CCCN1c1cnc(C(N)=O)c(Nc2cnn(C)c2C(F)(F)F)n1` [Example D-276, 5-[(2R,3R)-3-(4-cyclopropylbenzamido)-2-methylpiperidin-1-yl]-3-{[1-methyl-5-(trifluoromethyl)-1H-pyrazol-4-yl]amino}pyrazine-2-carboxamide] showed an IC50 [1] of 1000 to 10000 nM and an IC50 [2] of over 10000 nM.

Work on `C[C@@H]1[C@H](NC(=O)c2ccc(C(C)(C)C)cc2)CCCN1c1cnc(C(N)=O)c(Nc2cnn(C)c2)n1` [Example D-22, 5-[(2R,3R)-3-(4-tert-butylbenzamido)-2-methylpiperidin-1-yl]-3-[(1-methyl-1H-pyrazol-4-yl)amino]pyrazine-2-carboxamide] yielded an IC50 [1] of at most 10 nM and an IC50 [2] of 1000 to 10000 nM.

Compound `C[C@@H]1[C@H](NC(=O)c2c[nH]c(C3CC3)n2)CCCN1c1cnc(C(N)=O)c(Nc2cnn(C)c2)n1` [Example D-264, 5-[(2R,3R)-3-(2-cyclopropyl-1H-imidazole-4-amido)-2-methylpiperidin-1-yl]-3-[(1-methyl-1H-pyrazol-4-yl)amino]pyrazine-2-carboxamide] has an IC50 [1] of at most 10 nM and an IC50 [2] of 100 to 1000 nM.

`C[C@@H]1[C@H](NC(=O)c2ccc(C3CC3)cc2)CCCN1c1cnc(C(N)=O)c(Nc2ccc(C3CCN(C)CC3)cc2)n1` [Example D-301, 5-[(2R,3R)-3-(4-cyclopropylbenzamido)-2-methylpiperidin-1-yl]-3-{[4-(1-methylpiperidin-4-yl)phenyl]amino}pyrazine-2-carboxamide] gave an IC50 [1] of at most 10 nM and an IC50 [2] of 100 to 1000 nM.

`C[C@@H]1[C@H](NC(=O)c2ccc(C3CC3)cc2)CCCN1c1cnc(C(N)=O)c(Nc2cn[nH]c2)n1` [Example D-282, 5-[(2R,3R)-3-(4-cyclopropylbenzamido)-2-methylpiperidin-1-yl]-3-[(1H-pyrazol-4-yl)amino]pyrazine-2-carboxamide] gave an IC50 [1] of at most 10 nM and an IC50 [2] of 100 to 1000 nM.

`C[C@@H]1[C@H](NC(=O)c2cc(C3CC3)n[nH]2)CCCN1c1cnc(C(N)=O)c(Nc2cnn(C)c2)n1` [Example D-252, 5-[(2R,3R)-3-(3-cyclopropyl-1H-pyrazole-5-amido)-2-methylpiperidin-1-yl]-3-[(1-methyl-1H-pyrazol-4-yl)amino]pyrazine-2-carboxamide] showed an IC50 [1] of at most 10 nM and an IC50 [2] of 10 to 100 nM.

`C[C@@H]1[C@H](NC(=O)c2cc3c(n2C)CC(C)(C)C3)CCCN1c1cnc(C(N)=O)c(Nc2cnn(C)c2)n1` [Example D-19, 3-[(1-methyl-1H-pyrazol-4-yl)amino]-5-[(2R,3R)-2-methyl-3-{1,5,5-trimethyl-1H,4H,5H,6H-cyclopenta[b]pyrrole-2-amido}piperidin-1-yl]pyrazine-2-carboxamide] was tested, and the IC50 [1] was at most 10 nM and the IC50 [2] was 100 to 1000 nM.

For `CC(=O)N1CCN(c2ccc(Nc3nc(N4CCC[C@@H](NC(=O)c5ccc(C6CC6)cc5)[C@H]4C)cnc3C(N)=O)cc2)CC1` [Example D-295, 3-{[4-(4-acetylpiperazin-1-yl)phenyl]amino}-5-[(2R,3R)-3-(4-cyclopropylbenzamido)-2-methylpiperidin-1-yl]pyrazine-2-carboxamide], the IC50 [1] was at most 10 nM and the IC50 [2] was 100 to 1000 nM.

`C[C@@H]1[C@H](NC(=O)c2ccc(C3CC3)cc2)CCCN1c1cnc(C(N)=O)c(Nc2cnn(C3CC3)c2)n1` [Example D-279, 3-[(1-cyclopropyl-1H-pyrazol-4-yl)amino]-5-[(2R,3R)-3-(4-cyclopropylbenzamido)-2-methylpiperidin-1-yl]pyrazine-2-carboxamide] showed an IC50 [1] of at most 10 nM and an IC50 [2] of 100 to 1000 nM.

`Cc1c(Nc2nc(N3CCC[C@@H](NC(=O)c4ccc(C5CC5)cc4)[C@H]3C)cnc2C(N)=O)cnn1C` [Example D-271, 5-[(2R,3R)-3-(4-cyclopropylbenzamido)-2-methylpiperidin-1-yl]-3-[(1,5-dimethyl-1H-pyrazol-4-yl)amino]pyrazine-2-carboxamide] showed an IC50 [1] of 10 to 100 nM and an IC50 [2] of over 10000 nM.

`C[C@@H]1[C@H](NC(=O)c2ccc(C3CC3)cn2)CCCN1c1cnc(C(N)=O)c(Nc2cnn(C)c2)n1` [Example D-21, 5-[(2R,3R)-3-(5-cyclopropylpyridine-2-amido)-2-methylpiperidin-1-yl]-3-[(1-methyl-1H-pyrazol-4-yl)amino]pyrazine-2-carboxamide] showed an IC50 [1] of at most 10 nM and an IC50 [2] of 100 to 1000 nM.

In the case of `C[C@@H]1[C@H](NC(=O)c2ccc(C3CC3)nc2)CCCN1c1cnc(C(N)=O)c(Nc2ccc(N3CCC(F)(F)CC3)cc2)n1` [Example D-305, 5-[(2R,3R)-3-(6-cyclopropylpyridine-3-amido)-2-methylpiperidin-1-yl]-3-{[4-(4,4-difluoropiperidin-1-yl)phenyl]amino}pyrazine-2-carboxamide], the IC50 [1] is reported as at most 10 nM and the IC50 [2] is reported as 100 to 1000 nM.

`C[C@@H]1[C@H](NC(=O)c2ccc(C3CC3)cc2)CCCN1c1cnc(C(N)=O)c(Nc2ccc3c(c2)OC(F)(F)O3)n1` [Example D-315, 5-[(2R,3R)-3-(4-cyclopropylbenzamido)-2-methylpiperidin-1-yl]-3-[(2,2-difluoro-2H-1,3-benzodioxol-5-yl)amino]pyrazine-2-carboxamide] was tested, and the IC50 [1] was 1000 to 10000 nM and the IC50 [2] was over 10000 nM.

With `C[C@@H]1[C@H](NC(=O)c2ccc(C(C)(C)O)cc2F)CCCN1c1cnc(C(N)=O)c(Nc2cnn(C)c2)n1` [Example D-302, 5-[(2R,3R)-3-[2-fluoro-4-(2-hydroxypropan-2-yl)benzamido]-2-methylpiperidin-1-yl]-3-[(1-methyl-1H-pyrazol-4-yl)amino]pyrazine-2-carboxamide] the IC50 [1] was at most 10 nM and the IC50 [2] was 10 to 100 nM.

In the case of `CC(=O)N1CCC(c2ccc(Nc3nc(N4CCC[C@@H](NC(=O)c5ccc(C6CC6)cc5)[C@H]4C)cnc3C(N)=O)cc2)CC1` [Example D-296, 3-{[4-(1-acetylpiperidin-4-yl)phenyl]amino}-5-[(2R,3R)-3-(4-cyclopropylbenzamido)-2-methylpiperidin-1-yl]pyrazine-2-carboxamide], the IC50 [1] is reported as at most 10 nM and the IC50 [2] is reported as 100 to 1000 nM.

For `C[C@@H]1[C@H](NC(=O)c2ccc(C(C)(C)C)cc2)CCCN1c1cnc(C(N)=O)c(Nc2ccc(OC3CCN(C)CC3)cc2)n1` [Example D-291, 5-[(2R,3R)-3-(4-tert-butylbenzamido)-2-methylpiperidin-1-yl]-3-({4-[(1-methylpiperidin-4-yl)oxy]phenyl}amino)pyrazine-2-carboxamide], the IC50 [1] was at most 10 nM and the IC50 [2] was 10 to 100 nM.

In the case of `C[C@@H]1[C@H](NC(=O)c2ccc(C3CC3)cc2)CCCN1c1cnc(C(N)=O)c(Nc2cnn(C)c2F)n1` [Example D-290, 5-[(2R,3R)-3-(4-cyclopropylbenzamido)-2-methylpiperidin-1-yl]-3-[(5-fluoro-1-methyl-1H-pyrazol-4-yl)amino]pyrazine-2-carboxamide], the IC50 [1] is reported as 10 to 100 nM and the IC50 [2] is reported as over 10000 nM.

In the case of `C[C@@H]1[C@H](NC(=O)c2ccc(C3CC3)cc2)CCCN1c1cnc(C(N)=O)c(Nc2cc(C3CCN(C4CCCC4)CC3)ns2)n1` [Example D-311, 3-{[3-(1-cyclopentylpiperidin-4-yl)-1,2-thiazol-5-yl]amino}-5-[(2R,3R)-3-(4-cyclopropylbenzamido)-2-methylpiperidin-1-yl]pyrazine-2-carboxamide], the IC50 [1] is reported as at most 10 nM and the IC50 [2] is reported as 10 to 100 nM.

`C[C@@H]1[C@H](NC(=O)c2ccc(C3CC3)cc2)CCCN1c1cnc(C(N)=O)c(Nc2cc(C3CCOCC3)ns2)n1` [Example D-310, 5-[(2R,3R)-3-(4-cyclopropylbenzamido)-2-methylpiperidin-1-yl]-3-{[3-(oxan-4-yl)-1,2-thiazol-5-yl]amino}pyrazine-2-carboxamide] was tested, and the IC50 [1] was at most 10 nM and the IC50 [2] was 10 to 100 nM.

With `C[C@@H]1[C@H](NC(=O)c2ccc(N(C)C)cc2)CCCN1c1cnc(C(N)=O)c(Nc2cnn(C)c2)n1` [Example D-24, 5-[(2R,3R)-3-[4-(dimethylamino)benzamido]-2-methylpiperidin-1-yl]-3-[(1-methyl-1H-pyrazol-4-yl)amino]pyrazine-2-carboxamide] the IC50 [1] was at most 10 nM and the IC50 [2] was 100 to 1000 nM.

In the case of `C[C@@H]1[C@H](NC(=O)c2ccc(C3CC3)cc2)CCCN1c1cnc(C(N)=O)c(Nc2cnn(CC#N)c2)n1` [Example D-287, 3-{[1-(cyanomethyl)-1H-pyrazol-4-yl]amino}-5-[(2R,3R)-3-(4-cyclopropylbenzamido)-2-methylpiperidin-1-yl]pyrazine-2-carboxamide], the IC50 [1] is reported as at most 10 nM and the IC50 [2] is reported as 100 to 1000 nM.

`C[C@@H]1[C@H](NC(=O)c2cc(C3CC3)n(C)n2)CCCN1c1cnc(C(N)=O)c(Nc2cnn(C)c2)n1` [Example D-253, 5-[(2R,3R)-3-(5-cyclopropyl-1-methyl-1H-pyrazole-3-amido)-2-methylpiperidin-1-yl]-3-[(1-methyl-1H-pyrazol-4-yl)amino]pyrazine-2-carboxamide] gave an IC50 [1] of at most 10 nM and an IC50 [2] of 100 to 1000 nM.
